Laboratory results published in ChEMBL document CHEMBL1909046, “DrugMatrix in vitro pharmacology data”.

Experiments:
[1] = target: T1, B2 bradykinin receptor (Homo sapiens, UniProt P30411); assay type: cell membranes, Membrane; details: chem-1; note: in other assays of this panel Not Active means under 50% inhibition at 10 µM
T1 sequence (P30411 whole entry): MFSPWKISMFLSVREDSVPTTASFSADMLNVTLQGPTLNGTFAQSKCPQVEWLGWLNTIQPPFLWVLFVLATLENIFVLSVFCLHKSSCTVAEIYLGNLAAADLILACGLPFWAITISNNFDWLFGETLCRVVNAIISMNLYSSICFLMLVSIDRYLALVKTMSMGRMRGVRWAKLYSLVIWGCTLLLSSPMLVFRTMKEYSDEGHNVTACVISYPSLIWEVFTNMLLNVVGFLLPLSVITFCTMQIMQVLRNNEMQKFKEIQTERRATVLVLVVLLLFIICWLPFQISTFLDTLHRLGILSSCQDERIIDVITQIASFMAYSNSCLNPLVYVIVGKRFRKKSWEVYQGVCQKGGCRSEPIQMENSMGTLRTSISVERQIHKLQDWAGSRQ

[2] = target: 5-hydroxytryptamine receptor 2B (Homo sapiens, UniProt P41595); assay type: cell membranes, CHO-K1, Membrane; note: in other assays of this panel Not Active means under 50% inhibition at 10 µM
[3] = DRUGMATRIX: Phosphodiesterase PDE4 enzyme inhibition (substrate: [3H]cAMP + cAMP); details: u-937; Not Active = under 50% inhibition at 10 µM
[4] = target: Receptor tyrosine-protein kinase erbB-2 (Homo sapiens, UniProt P04626); assay: biochemical; assay type: cell-based, Insect cells; details: insect cells;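 note: inhibition of HER2 kinase enzyme activity, measured with Poly(Glu:Tyr) as the phosphorylation substrate; in other assays of this panel Not Active means under 50% inhibition at 10 µM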
[5] = target: T2, Cytochrome P450 2A6 (Homo sapiens, UniProt P11509); details: bti-tn-5b1-4; note: in other assays of this panel Not Active means under 50% inhibition at 10 µM
T2 sequence (P11509 whole entry): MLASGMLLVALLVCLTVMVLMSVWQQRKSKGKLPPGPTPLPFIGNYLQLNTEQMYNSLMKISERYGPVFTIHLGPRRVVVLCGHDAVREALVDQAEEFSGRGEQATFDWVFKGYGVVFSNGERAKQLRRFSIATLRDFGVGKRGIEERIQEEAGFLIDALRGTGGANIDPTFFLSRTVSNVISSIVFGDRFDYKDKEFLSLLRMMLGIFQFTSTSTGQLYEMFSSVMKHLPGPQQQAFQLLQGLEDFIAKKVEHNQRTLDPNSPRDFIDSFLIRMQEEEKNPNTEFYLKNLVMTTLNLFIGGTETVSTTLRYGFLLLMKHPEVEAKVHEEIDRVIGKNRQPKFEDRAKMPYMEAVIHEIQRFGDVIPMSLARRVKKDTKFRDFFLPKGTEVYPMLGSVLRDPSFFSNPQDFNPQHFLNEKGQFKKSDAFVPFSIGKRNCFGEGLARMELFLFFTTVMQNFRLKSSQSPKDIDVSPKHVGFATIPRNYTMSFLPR

[6] = target: Nitric oxide synthase 1 (Rattus norvegicus, UniProt P29476); assay type: tissue-based, Cerebellum; note: in other assays of this panel Not Active means under 50% inhibition at 10 µM
[7] = target: T3, Endothelin-1 receptor (Homo sapiens, UniProt P25101); assay type: cell membranes, Membrane; details: cho-k1; note: in other assays of this panel Not Active means under 50% inhibition at 10 µM
T3 sequence (P25101 whole entry): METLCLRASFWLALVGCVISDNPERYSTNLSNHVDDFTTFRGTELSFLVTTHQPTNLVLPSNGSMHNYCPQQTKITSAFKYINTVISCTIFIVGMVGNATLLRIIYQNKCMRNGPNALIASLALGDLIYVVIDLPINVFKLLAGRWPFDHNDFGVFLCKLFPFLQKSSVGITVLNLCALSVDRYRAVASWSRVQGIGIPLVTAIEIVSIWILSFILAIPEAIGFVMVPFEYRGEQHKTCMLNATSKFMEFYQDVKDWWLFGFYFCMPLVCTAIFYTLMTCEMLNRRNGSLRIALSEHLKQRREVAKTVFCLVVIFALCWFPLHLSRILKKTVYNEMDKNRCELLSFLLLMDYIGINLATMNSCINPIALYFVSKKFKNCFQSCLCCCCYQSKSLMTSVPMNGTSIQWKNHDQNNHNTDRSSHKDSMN

[8] = target: T4, Alpha-1D adrenergic receptor (Homo sapiens, UniProt P25100); assay type: cell membranes, HEK293, Membrane; details: hek293; note: in other assays of this panel Not Active means under 50% inhibition at 10 µM
T4 sequence (P25100 whole entry): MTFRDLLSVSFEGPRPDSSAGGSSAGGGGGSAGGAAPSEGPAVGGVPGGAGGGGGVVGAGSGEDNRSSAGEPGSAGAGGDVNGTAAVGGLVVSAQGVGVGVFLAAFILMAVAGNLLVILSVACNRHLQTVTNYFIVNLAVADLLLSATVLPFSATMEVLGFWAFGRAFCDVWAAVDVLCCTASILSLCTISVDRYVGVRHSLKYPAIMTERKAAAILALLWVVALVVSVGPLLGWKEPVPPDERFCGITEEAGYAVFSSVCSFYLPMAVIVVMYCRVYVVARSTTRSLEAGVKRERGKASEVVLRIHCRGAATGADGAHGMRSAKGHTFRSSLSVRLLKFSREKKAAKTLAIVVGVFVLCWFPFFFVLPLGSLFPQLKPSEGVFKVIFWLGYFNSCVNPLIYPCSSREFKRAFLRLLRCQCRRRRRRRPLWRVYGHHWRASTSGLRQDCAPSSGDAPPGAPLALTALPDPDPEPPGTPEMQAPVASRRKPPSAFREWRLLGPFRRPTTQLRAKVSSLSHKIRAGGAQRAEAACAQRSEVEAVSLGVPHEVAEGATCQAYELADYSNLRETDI

[9] = target: Adenosine receptor A2a (Homo sapiens, UniProt P29274); assay: DRUGMATRIX: Adenosine A2A radioligand binding (ligand: […]); assay type: cell membranes, HEK293, Membrane; details: hek293; Not Active = under 50% inhibition at 10 µM
Sequence of Adenosine receptor A2a (P29274 whole entry): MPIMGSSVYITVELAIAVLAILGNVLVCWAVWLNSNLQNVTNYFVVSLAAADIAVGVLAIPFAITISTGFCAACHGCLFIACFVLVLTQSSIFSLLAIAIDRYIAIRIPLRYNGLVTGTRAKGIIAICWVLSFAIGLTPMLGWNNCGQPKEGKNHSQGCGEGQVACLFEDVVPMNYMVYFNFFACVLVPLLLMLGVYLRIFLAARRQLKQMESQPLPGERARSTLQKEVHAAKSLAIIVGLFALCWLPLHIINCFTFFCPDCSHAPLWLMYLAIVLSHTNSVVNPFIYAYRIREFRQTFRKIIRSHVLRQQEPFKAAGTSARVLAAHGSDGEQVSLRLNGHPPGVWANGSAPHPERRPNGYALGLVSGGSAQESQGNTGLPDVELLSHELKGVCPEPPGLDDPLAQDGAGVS

Sequence of Receptor tyrosine-protein kinase erbB-2 (P04626 whole entry): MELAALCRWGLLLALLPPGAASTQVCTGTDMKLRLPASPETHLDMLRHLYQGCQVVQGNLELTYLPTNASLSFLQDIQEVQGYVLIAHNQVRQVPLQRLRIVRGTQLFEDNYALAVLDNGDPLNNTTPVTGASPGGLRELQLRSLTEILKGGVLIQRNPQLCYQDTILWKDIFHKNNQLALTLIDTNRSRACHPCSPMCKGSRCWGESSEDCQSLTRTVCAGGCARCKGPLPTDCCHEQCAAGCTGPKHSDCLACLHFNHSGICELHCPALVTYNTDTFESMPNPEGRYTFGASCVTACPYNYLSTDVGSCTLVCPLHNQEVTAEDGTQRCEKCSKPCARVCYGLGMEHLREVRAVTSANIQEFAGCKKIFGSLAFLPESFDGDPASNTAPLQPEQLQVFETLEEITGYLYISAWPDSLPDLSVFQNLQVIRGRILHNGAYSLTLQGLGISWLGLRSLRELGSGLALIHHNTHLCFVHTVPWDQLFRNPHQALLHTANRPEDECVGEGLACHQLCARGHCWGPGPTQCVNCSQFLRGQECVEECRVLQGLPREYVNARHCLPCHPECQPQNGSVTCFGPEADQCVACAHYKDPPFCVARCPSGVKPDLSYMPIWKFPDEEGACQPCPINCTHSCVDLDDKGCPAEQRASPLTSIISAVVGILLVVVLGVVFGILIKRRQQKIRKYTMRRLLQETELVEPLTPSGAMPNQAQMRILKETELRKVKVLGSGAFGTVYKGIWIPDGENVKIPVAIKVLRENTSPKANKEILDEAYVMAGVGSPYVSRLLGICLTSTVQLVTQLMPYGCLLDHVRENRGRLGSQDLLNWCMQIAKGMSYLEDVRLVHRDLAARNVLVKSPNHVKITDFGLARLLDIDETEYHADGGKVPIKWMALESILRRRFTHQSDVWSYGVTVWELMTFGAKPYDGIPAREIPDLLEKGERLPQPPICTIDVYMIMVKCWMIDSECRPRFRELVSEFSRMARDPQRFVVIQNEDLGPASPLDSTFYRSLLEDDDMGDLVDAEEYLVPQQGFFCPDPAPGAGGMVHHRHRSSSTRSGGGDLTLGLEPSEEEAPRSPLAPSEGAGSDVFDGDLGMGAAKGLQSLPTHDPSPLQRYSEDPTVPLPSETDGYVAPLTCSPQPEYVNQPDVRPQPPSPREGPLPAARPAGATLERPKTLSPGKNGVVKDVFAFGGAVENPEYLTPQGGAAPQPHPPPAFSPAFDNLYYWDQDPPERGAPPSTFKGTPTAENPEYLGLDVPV
Sequence of 5-hydroxytryptamine receptor 2B (P41595 whole entry): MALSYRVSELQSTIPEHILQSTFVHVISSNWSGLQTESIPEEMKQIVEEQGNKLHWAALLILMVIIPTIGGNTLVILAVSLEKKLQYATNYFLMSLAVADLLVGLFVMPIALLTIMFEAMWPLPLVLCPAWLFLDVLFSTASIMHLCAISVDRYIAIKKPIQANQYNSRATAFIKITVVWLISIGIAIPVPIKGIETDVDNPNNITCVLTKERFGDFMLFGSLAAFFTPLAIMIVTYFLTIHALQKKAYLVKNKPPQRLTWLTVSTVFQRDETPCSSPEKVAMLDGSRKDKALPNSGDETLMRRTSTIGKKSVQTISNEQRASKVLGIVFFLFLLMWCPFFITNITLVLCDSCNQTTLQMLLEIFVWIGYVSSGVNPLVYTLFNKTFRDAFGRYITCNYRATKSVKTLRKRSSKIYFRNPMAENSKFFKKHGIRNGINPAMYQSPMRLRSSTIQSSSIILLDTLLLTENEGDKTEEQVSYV
Sequence of Nitric oxide synthase 1 (P29476 whole entry): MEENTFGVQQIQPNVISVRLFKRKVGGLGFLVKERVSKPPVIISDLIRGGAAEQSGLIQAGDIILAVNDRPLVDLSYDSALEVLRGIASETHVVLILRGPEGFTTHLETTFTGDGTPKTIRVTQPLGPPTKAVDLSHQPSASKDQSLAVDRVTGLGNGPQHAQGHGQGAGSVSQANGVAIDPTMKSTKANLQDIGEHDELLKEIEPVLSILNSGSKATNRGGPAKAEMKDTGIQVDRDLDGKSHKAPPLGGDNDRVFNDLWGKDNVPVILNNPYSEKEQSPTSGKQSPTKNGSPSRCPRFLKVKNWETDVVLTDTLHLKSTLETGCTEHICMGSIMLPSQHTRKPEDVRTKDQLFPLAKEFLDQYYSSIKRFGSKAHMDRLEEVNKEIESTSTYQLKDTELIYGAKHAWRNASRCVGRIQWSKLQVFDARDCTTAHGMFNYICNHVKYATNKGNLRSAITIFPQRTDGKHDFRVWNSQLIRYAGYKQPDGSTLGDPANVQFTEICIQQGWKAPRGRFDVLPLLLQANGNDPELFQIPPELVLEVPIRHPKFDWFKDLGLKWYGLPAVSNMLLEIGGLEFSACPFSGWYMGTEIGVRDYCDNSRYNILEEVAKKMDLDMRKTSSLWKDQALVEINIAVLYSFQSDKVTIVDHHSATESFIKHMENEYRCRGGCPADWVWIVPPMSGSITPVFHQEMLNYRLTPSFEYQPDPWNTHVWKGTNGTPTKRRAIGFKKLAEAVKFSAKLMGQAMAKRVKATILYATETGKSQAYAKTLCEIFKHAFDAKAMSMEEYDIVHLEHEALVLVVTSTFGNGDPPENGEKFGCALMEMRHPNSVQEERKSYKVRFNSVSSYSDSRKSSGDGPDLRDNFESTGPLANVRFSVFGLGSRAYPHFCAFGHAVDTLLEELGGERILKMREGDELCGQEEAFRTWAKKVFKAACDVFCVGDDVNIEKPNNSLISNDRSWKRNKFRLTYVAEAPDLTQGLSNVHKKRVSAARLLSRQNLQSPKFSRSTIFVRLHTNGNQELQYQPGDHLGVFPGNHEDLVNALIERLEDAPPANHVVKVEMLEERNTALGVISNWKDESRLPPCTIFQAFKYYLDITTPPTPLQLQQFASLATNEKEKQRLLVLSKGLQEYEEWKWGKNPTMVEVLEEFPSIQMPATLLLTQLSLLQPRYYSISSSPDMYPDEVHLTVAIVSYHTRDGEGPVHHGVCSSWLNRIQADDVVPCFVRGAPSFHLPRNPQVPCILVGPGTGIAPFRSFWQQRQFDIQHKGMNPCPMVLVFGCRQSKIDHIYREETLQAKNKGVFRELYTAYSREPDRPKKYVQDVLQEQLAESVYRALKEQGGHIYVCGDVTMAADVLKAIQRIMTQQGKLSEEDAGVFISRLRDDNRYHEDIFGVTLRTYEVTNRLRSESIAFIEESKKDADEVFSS

NNC(=O)c1ccncc1 [ISONIAZID]
Not Active: IC50 [1] | IC50 ([2]; cho-k1) | IC50 [3] | Ki [3] | IC50 [4] | IC50 [5] | Ki [5] | IC50 [6] | IC50 [7] | IC50 [8] | IC50 [9]

Cc1ncc([N+](=O)[O-])n1CC(C)O (centres undefined) [SECNIDAZOLE]
Not Active: IC50 [1] | IC50 ([2]; cho-k1) | IC50 [3] | Ki [3] | IC50 [4] | IC50 [5] | Ki [5] | IC50 [6] | IC50 [7] | IC50 [8] | IC50 [9]

COS(C)(=O)=O [METHANESULFONIC ACID METHYL ESTER]
Not Active: IC50 [1] | IC50 ([2]; cho-k1) | IC50 [3] | Ki [3] | IC50 [4] | IC50 [5] | Ki [5] | IC50 [6] | IC50 [7] | IC50 [8] | IC50 [9]

CC(C)(C)NCC(O)c1ccc(O)c(CO)c1 (centres undefined) [ALBUTEROL]
Not Active: IC50 [1] | IC50 ([2]; cho-k1) | IC50 [3] | Ki [3] | IC50 [4] | IC50 [5] | Ki [5] | IC50 [6] | IC50 [7] | IC50 [8] | IC50 [9]

Cc1ccc(C(=O)C(C)CN2CCCCC2)cc1 (centres undefined) [TOLPERISONE]
Not Active: IC50 [1] | IC50 ([2]; cho-k1) | IC50 [3] | Ki [3] | IC50 [4] | IC50 [5] | Ki [5] | IC50 [6] | IC50 [7] | IC50 [8] | IC50 [9]

CN[C@H](CC(C)C)C(=O)N[C@H]1C(=O)N[C@@H](CC(N)=O)C(=O)N[C@H]2C(=O)N[C@H]3C(=O)N[C@H](C(=O)N[C@H](C(=O)O)c4cc(O)cc(O)c4-c4cc3ccc4O)[C@H](O)c3ccc(c(Cl)c3)Oc3cc2cc(c3O[C@@H]2O[C@H](CO)[C@@H](O)[C@H](O)[C@H]2O[C@H]2C[C@](C)(N)[C@H](O)[C@H](C)O2)Oc2ccc(cc2Cl)[C@H]1O [VANCOMYCIN]
Not Active: IC50 [1] | IC50 ([2]; cho-k1) | IC50 [3] | Ki [3] | IC50 [4] | IC50 [5] | Ki [5] | IC50 [6] | IC50 [7] | IC50 [8] | IC50 [9]

CC(=O)[C@H]1CC[C@H]2[C@@H]3CCC4=CC(=O)CC[C@]4(C)[C@H]3CC[C@]12C [PROGESTERONE]
Not Active: IC50 [1] | IC50 ([2]; cho-k1) | IC50 [3] | Ki [3] | IC50 [4] | IC50 [5] | Ki [5] | IC50 [6] | IC50 [7] | IC50 [8] | IC50 [9]

C[C@](N)(Cc1ccc(O)cc1)C(=O)O [METYROSINE]
Not Active: IC50 [1] | IC50 ([2]; cho-k1) | IC50 [3] | Ki [3] | IC50 [4] | IC50 [5] | Ki [5] | IC50 [6] | IC50 [7] | IC50 [8] | IC50 [9]

CC(C)[C@H](N)C(=O)OCCOCn1cnc2c(=O)nc(N)[nH]c21 [VALACYCLOVIR]
Not Active: IC50 [1] | IC50 ([2]; cho-k1) | IC50 [3] | Ki [3] | IC50 [4] | IC50 [5] | Ki [5] | IC50 [6] | IC50 [7] | IC50 [8] | IC50 [9]

Cc1cc(NS(=O)(=O)c2ccc(N)cc2)no1 [SULFAMETHOXAZOLE]
Not Active: IC50 [1] | IC50 ([2]; cho-k1) | IC50 [3] | Ki [3] | IC50 [4] | IC50 [5] | Ki [5] | IC50 [6] | IC50 [7] | IC50 [8] | IC50 [9]

CC1=C(/C=C/C(C)=C/C=C/C(C)=C\C(=O)O)C(C)(C)CCC1 [ISOTRETINOIN]
848 nM: IC50 ([2]; read-out: IC50)
Not Active: IC50 [1] | IC50 [3] | Ki [3] | IC50 [4] | IC50 [5] | Ki [5] | IC50 [6] | IC50 [7] | IC50 [8] | IC50 [9]
540 nM: Ki ([2]; read-out: Ki)

C[C@]12Cc3c[nH]nc3C[C@@H]1CC[C@@H]1[C@@H]2CC[C@@]2(C)[C@H]1CC[C@]2(C)O [STANOZOLOL]
Not Active: IC50 [1] | IC50 ([2]; cho-k1) | IC50 [3] | Ki [3] | IC50 [4] | IC50 [5] | Ki [5] | IC50 [6] | IC50 [7] | IC50 [8] | IC50 [9]

NCCCC[C@H](N[C@@H](CCc1ccccc1)C(=O)O)C(=O)N1CCC[C@H]1C(=O)O [LISINOPRIL ANHYDROUS]
Not Active: IC50 [1] | IC50 ([2]; cho-k1) | IC50 [3] | Ki [3] | IC50 [4] | IC50 [5] | Ki [5] | IC50 [6] | IC50 [7] | IC50 [8] | IC50 [9]
